In patent US5401725A, “Neovascularization inhibition by adenosine-5'-phosphosulfates” (Unitika Ltd., priority 1990, dated 1995):

Assays:
[1] = test system: capillary vessel hyperplasia (experimental diabetic retinopathy); test: therapeutic effect on experimental diabetic retinopathy; assay type: in vivo, rat (wister); conditions: for improving effect of pathologic state / beneficial effect on the pathologic state: I.P.; for improving effect of pathologic state: ten consecutive days; for beneficial effect on the pathologic state: ten days
Experimental: First, streptozocin in an amount of 65 mg/kg was administered to a six-week aged male wister rat from its vena caudalis, and about three months thereafter, 3,3'-iminodipropionitrile was administered. Rats in which abnormal growth of capillary vessel (hyperplasia retinitis) was observed were screened out and were subjected to a medicament administration test with ten rats as a group.
For comparison purposes, the effect of the medroxyprogesterone acetate (MPA), the conventional substance for inhibiting the neovascularization, was also tested by the same procedure as described above.

[2] = test system: neovascularization in the cornea; test: inhibition of neovascularization in the cornea of rabbits (slow-releasing pellet); assay type: in vivo, rabbit; conditions: 100 μg and 1.0 mg in pellet with 10 μg prostaglandin E1 or 200 μg cuprous chloride; seven days
[3] = test system: neovascularization of chorio-allantoic membranes; test: neovascularization inhibition on chorio-allantoic membranes of fertilized fowl eggs; assay type: in vivo; conditions: for neovascularization inhibitory rate: two days; for neovascularization inhibitory effect (in words): commercially available
[4] = toxicity in rats, parenteral administration; assay type: in vivo, rat; conditions: 500 to 3,500 mg/kg in 50% dimethylsulfoxide, I.V. or I.P.

With `CC(=O)O[C@]1(C(C)=O)CC[C@H]2[C@@H]3C[C@H](C)C4=CC(=O)CC[C@]4(C)[C@H]3CC[C@@]21C` [MPA, medroxyprogesterone acetate, reference compound] the “improving effect of pathologic state” value ([1]; Table 3, 1.5 mg/kg) was “-”, the “improving effect of pathologic state” value ([1]; Table 3, 3.0 mg/kg) was “+ (improving effects of pathologic state of 10 to 30%)” and the “improving effect of pathologic state” value ([1]; Table 3, 4.5 mg/kg) was “+ (improving effects of pathologic state of 10 to 30%)”. For the same compound, the “improving effect of pathologic state” value ([1]; Table 3, 6.0 mg/kg) was “++ (30 to 70%)”.

With `Nc1ncnc2c1ncn2[C@@H]1O[C@H](COP(=O)(O)OS(=O)(=O)O)[C@@H](OP(=O)(O)O)[C@H]1O` [PAPS, 3-phosphoadenosine 5'-phosphosulfate] the “inhibition of neovascularization caused by prostaglandin E1 or cuprous chloride” value [2] was “perfectly inhibit the neovascularization”, the neovascularization inhibitory rate ([3]; Table 1, commercially available (Sigma), dose 1 μg) was “+ (10 to 80% (+))” and the neovascularization inhibitory rate ([3]; Table 1, commercially available (Sigma), dose 10 μg) was “++ (80 to 70% (++))”. The neovascularization inhibitory rate ([3]; Table 1, commercially available (Sigma), dose 100 μg) was “++ (80 to 70% (++))”, the neovascularization inhibitory rate ([3]; Table 1, commercially available (Sigma), dose 1,000 μg) was “+++ (70 to 100% (+++))” and the neovascularization inhibitory rate ([3]; Table 2, enzyme-synthesized, dose 1 μg) was “+ (10 to 80% (+))”. The neovascularization inhibitory rate ([3]; Table 2, enzyme-synthesized, dose 10 μg) was “++ (80 to 70% (++))”, the neovascularization inhibitory rate ([3]; Table 2, enzyme-synthesized, dose 100 μg) was “++ (80 to 70% (++))” and the neovascularization inhibitory rate ([3]; Table 2, enzyme-synthesized, dose 1,000 μg) was “+++ (70 to 100% (+++))”. The “neovascularization inhibitory effect (in words)” value ([3]; dose 10 μg) was “slight effect”, the “neovascularization inhibitory effect (in words)” value ([3]; dose at least 100 μg) was “perfect neovascularization inhibitory effect” and the “neovascularization inhibition (in words)” value ([3]; enzyme-synthesized, dose range 1 to 1,000 μg) was “inhibited neovascularization in a dose-dependent manner”. For the same compound, the intoxication or lethality [4] was “no cases of intoxication or lethality”, the “beneficial effect on the pathologic state” value ([1]; 1.5 mg/kg administration group) was 10% and the “beneficial effect on the pathologic state” value ([1]; 3.0 mg/kg group) was 70%. For the same compound, the “beneficial effect on the pathologic state” value ([1]; 6.0 mg/kg group) was “at least 80%”, the “improving effect of pathologic state” value ([1]; Table 3, 1.5 mg/kg) was “+ (improving effects of pathologic state of 10 to 30%)” and the “improving effect of pathologic state” value ([1]; Table 3, 3.0 mg/kg) was “++ (30 to 70%)”. For the same compound, the “improving effect of pathologic state” value ([1]; Table 3, 4.5 mg/kg) was “+++ (70 to 100%)”, the “improving effect of pathologic state” value ([1]; Table 3, 6.0 mg/kg) was “+++ (70 to 100%)” and the “therapeutic effect as compared with MPA (in words)” value ([1]; any of the doses (1.5-6.0 mg/kg), compared with MPA) was “excellent therapeutic effect”.
